The target of the test is T1, abc isoform of human TMEM16A channel expressed in CHO cells (Homo sapiens, UniProt Q5XXA6, DEL476-501).
T1 construct: expressed in transfected cells; host or cells: CHO cells, doxycycline-inducible expression under Blasticidin/Zeocin selection
T1 sequence (Q5XXA6 with tags, fused parts or gaps isoform Q5XXA6-5 DEL539-564): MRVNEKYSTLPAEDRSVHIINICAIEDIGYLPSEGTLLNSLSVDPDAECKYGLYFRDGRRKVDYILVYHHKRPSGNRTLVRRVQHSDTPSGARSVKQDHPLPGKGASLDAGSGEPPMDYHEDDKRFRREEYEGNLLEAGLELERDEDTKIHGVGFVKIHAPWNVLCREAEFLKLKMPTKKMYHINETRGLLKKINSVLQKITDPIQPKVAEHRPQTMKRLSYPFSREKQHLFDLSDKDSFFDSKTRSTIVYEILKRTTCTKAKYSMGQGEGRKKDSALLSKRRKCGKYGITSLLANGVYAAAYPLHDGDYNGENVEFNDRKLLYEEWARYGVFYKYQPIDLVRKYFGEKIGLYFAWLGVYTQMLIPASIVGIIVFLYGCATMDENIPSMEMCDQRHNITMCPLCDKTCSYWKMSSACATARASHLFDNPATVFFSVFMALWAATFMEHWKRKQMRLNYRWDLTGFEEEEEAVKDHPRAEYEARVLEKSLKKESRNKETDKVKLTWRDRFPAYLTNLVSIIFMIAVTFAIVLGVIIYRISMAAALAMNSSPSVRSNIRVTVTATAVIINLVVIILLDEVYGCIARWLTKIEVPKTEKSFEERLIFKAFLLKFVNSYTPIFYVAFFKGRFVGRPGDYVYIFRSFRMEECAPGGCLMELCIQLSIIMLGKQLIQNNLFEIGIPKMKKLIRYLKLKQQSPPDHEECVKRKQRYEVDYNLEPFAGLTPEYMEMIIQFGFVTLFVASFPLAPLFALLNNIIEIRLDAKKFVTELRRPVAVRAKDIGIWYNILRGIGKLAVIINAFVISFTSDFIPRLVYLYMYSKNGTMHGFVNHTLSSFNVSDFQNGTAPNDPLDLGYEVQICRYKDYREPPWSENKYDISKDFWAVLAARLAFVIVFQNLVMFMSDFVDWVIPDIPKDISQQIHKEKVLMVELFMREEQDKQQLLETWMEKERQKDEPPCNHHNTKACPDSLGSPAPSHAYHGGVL
Kind of test: Automated patch clamping (QPatch) assay to measure TMEM16A activity in whole-cell. The test is classed as cell-based. To be noted: for EC50: CHO cells expressing human TMEM16A (abc), whole-cell automated patch clamp, Hill fit, read-out: TMEM16A QPATCH assay EC50 V3 EC50; for Emax: CHO, maximum current at highest dose relative to reference potentiator at maximal concentration (upper limit) and vehicle (lower limit), read-out: TMEM16A QPATCH assay EC50 V3 Assay Window (% TMEM16A max activation). Summed up:
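CHO cells with doxycycline-induced (1 μg/mL, 18-24 h) human TMEM16A abc isoform; QPatch whole-cell recording, hold −70 mV, step +70 mV 1500 ms, then −90 to +70 mV ramp. Compounds in 0.3% DMSO; EC50 by Hill fit; % max activation relative to vehicle baseline and reference potentiator maximum.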

Each structure is given as a SMILES string.

Take `C[C@@H](NC(=O)c1n[nH]c(-c2cccc(-c3ncc(C(=O)N[C@H](C)C4CC4)o3)c2)n1)C1CC1` [Example 13.2, N-((R)-1-Cyclopropylethyl)-2-(3-(3-(((R)-1-Cyclopropylethyl)Carbamoyl)-1H-1,2,4-Triazol-5-Yl)Phenyl)Oxazole-5-Carboxamide]: the EC50 (as a rule, the concentration giving half of the maximal effect) was determined as 0.65 µM and the Emax was found to be 77%.
The like results for `CCC(CC)NC(=O)c1nnc(-c2cccc(-c3ncc(C(=O)NC(CC)CC)o3)c2)[nH]1` [Example 13.3, N-(Pentan-3-Yl)-2-(3-(5-(Pentan-3-Ylcarbamoyl)-1 H-1,2,4-Triazol-3-Yl)Phenyl)Oxazole-5-Carboxamide] were, in that order, 0.05 µM and 95%.
For `C[C@H](NC(=O)c1cnc(-c2cccc(-c3nnc(C(=O)NC4CCC(F)(F)CC4)[nH]3)c2)o1)C1CC1` [Example 13.4, (S)-N-(1-Cyclopropylethyl)-2-(3-(5-((4,4-Difluorocyclohexyl)Carbamoyl)-4H-1,2,4-Triazol-3-Yl)Phenyl)Oxazole-5-Carboxamide], in that order: 0.94 µM and 80%.
For `CCC(CC)NC(=O)c1cnc(-c2cccc(-c3nnc(C(=O)NCC4CCCCC4)[nH]3)c2)o1` [Example 13.5, 2-(3-(5-((Cyclohexylmethyl)Carbamoyl)-4H-1,2,4-Triazol-3-Yl)Phenyl)-N-(Pentan-3-Yl)Oxazole-5-Carboxamide], in that order: 0.03 µM and 88%.
For the compound `CCOC(=O)[C@@H](NC(=O)c1nnc(-c2cccc(-c3ncc(C(=O)N[C@@H](C)C4CC4)o3)c2)[nH]1)C(C)C` [Example 13.6, (S)-Ethyl 2-(5-(3-(5-(((S)-1-Cyclopropylethyl)Carbamoyl)Oxazol-2-Yl)Phenyl)-4H-1,2,4-Triazole-3-Carboxamido)-3-Methylbutanoate], the EC50 is 0.37 µM and the Emax amounted to 97%.
For `COC(=O)[C@@H](NC(=O)c1nc(-c2cccc(-c3ncc(C(=O)NC(C4CC4)C4CC4)o3)c2)n[nH]1)C(C)C` [Example 13.7, (S)-Methyl 2-(3-(3-(5-((Dicyclopropylmethyl)Carbamoyl)Oxazol-2-Yl)Phenyl)-1H-1,2,4-Triazole-5-Carboxamido)-3-Methylbutanoate], in that order: 0.47 µM and 121%.
For `CCC(CC)NC(=O)c1cnc(-c2cccc(-c3nnc(C(=O)N[C@@H](C)C4CC4)[nH]3)c2)o1` [Example 14.0, (S)-2-(3-(5-((1-Cyclopropylethyl)Carbamoyl)-4H-1,2,4-Triazol-3-Yl)Phenyl)-N-(Pentan-3-Yl)Oxazole-5-Carboxamide], in that order: 0.58 µM and 177%.
The like results for `CCC(CC)NC(=O)c1cnc(-c2cccc(-c3nc(C(=O)NC(CC)CC)n(CCN4CCCCC4)n3)c2)o1` [Example 15.0, N-(Pentan-3-Yl)-2-(3-(5-(Pentan-3-Ylcarbamoyl)-1-(2-(Piperidin-1-Yl)Ethyl)-1H-1,2,4-Triazol-3-Yl)Phenyl)Oxazole-5-Carboxamide] were, in that order, 0.42 µM and 161%.
Take `CCC(CC)NC(=O)c1cnc(-c2cccc(-c3nc(C(=O)NC(CC)CC)n(CCOC)n3)c2)o1` [Example 15.1, 2-(3-(1-(2-Methoxyethyl)-5-(Pentan-3-Ylcarbamoyl)-1H-1,2,4-Triazol-3-Yl)Phenyl)-N-(Pentan-3-Yl)Oxazole-5-Carboxamide]: the EC50 was found to be 0.24 µM and the Emax is 155%.
`CCOC(=O)Cn1nc(-c2cccc(-c3ncc(C(=O)NC(CC)CC)o3)c2)nc1C(=O)NC(CC)CC` [Example 15.2, Ethyl 2-(5-(Pentan-3-Ylcarbamoyl)-3-(3-(5-(Pentan-3-Ylcarbamoyl)Oxazol-2-Yl)Phenyl)-1 H-1,2,4-Triazol-1-Yl)Acetate]: the EC50 was 0.08 µM and the Emax came out at 80%.
The like results for `CCC(CC)NC(=O)c1cnc(-c2cccc(-c3nc(C(=O)NC(CC)CC)n(CCN(C)C)n3)c2)o1` [Example 15.4, 2-(3-(1-(2-(Dimethylamino)Ethyl)-5-(Pentan-3-Ylcarbamoyl)-1H-1,2,4-Triazol-3-Yl)Phenyl)-N-(Pentan-3-Yl)Oxazole-5-Carboxamide] were, in that order, 1 µM and 61%.
The like results for `CCC(CC)NC(=O)c1cnc(-c2cccc(-c3nnc(C(=O)NC(CC)CC)n3CCOC)c2)o1` [Example 15.5, 2-(3-(4-(2-Methoxyethyl)-5-(Pentan-3-Ylcarbamoyl)-4H-1,2,4-Triazol-3-Yl)Phenyl)-N-(Pentan-3-Yl)Oxazole-5-Carboxamide] were, in that order, 0.44 µM and 83%.
For `CCC(CC)NC(=O)c1cnc(-c2cccc(-c3nc(C(=O)NC(CC)CC)n(CCNCc4ccccc4)n3)c2)o1` [Example 15.6, 2-(3-(1-(2-(Benzylamino)Ethyl)-5-(Pentan-3-Ylcarbamoyl)-1H-1,2,4-Triazol-3-Yl)Phenyl)-N-(Pentan-3-Yl)Oxazole-5-Carboxamide], in that order: 0.33 µM and 154%.
Take `CCC(CC)NC(=O)c1cnc(-c2cccc(-c3nc(C(=O)NC(CC)CC)n(CCN4Cc5ccccc5C4)n3)c2)o1` [Example 15.7, 2-(3-(1-(2-(Isoindolin-2-Yl)Ethyl)-5-(Pentan-3-Ylcarbamoyl)-1H-1,2,4-Triazol-3-Yl)Phenyl)-N-(Pentan-3-Yl)Oxazole-5-Carboxamide]: the EC50 is 0.32 µM and the Emax was determined as 103%.
In the case of `CCOC(=O)CCCn1nc(-c2cccc(-c3ncc(C(=O)NC(CC)CC)o3)c2)nc1C(=O)NC(CC)CC` [Example 15.8, Ethyl 4-(5-(Pentan-3-Ylcarbamoyl)-3-(3-(5-(Pentan-3-Ylcarbamoyl)Oxazol-2-Yl)Phenyl)-1H-1,2,4-Triazol-1-Yl)Butanoate], the EC50 amounted to 0.09 µM and the Emax worked out at 95%.
As for `CCC(CC)NC(=O)c1cnc(-c2cccc(-c3nc(C(=O)NC(CC)CC)n(CCOCCOCCOC)n3)c2)o1` [Example 15.9, 2-(3-(1-(2-(2-(2-Methoxyethoxy)Ethoxy)Ethyl)-5-(Pentan-3-Ylcarbamoyl)-1H-1,2,4-Triazol-3-Yl)Phenyl)-N-(Pentan-3-Yl)Oxazole-5-Carboxamide], the concentration for a half-maximal effect (EC50) came to 1 µM and the Emax was found to be 95%.
The like results for `CCC(CC)NC(=O)c1cnc(-c2cccc(-c3nc(C(=O)NC(CC)CC)n(CC(=O)OC(C)(C)C)n3)c2)o1` [Example 15.10, Tert-Butyl 2-(5-(Pentan-3-Ylcarbamoyl)-3-(3-(5-(Pentan-3-Ylcarbamoyl)Oxazol-2-Yl)Phenyl)-1H-1,2,4-Triazol-1-Yl)Acetate] were, in that order, 0.08 µM and 73%.
The like results for `CCOC(=O)CCCCCn1nc(-c2cccc(-c3ncc(C(=O)NC(CC)CC)o3)c2)nc1C(=O)NC(CC)CC` [Example 15.11] were, in that order, 0.44 µM and 88%.
As for `CCC(CC)NC(=O)c1cnc(-c2cccc(-c3nc(C(=O)NC(CC)CC)n(CCO)n3)c2)o1` [Example 16.0, 2-(3-(1-(2-Hydroxyethyl)-5-(Pentan-3-Ylcarbamoyl)-1H-1,2,4-Triazol-3-Yl)Phenyl)-N-(Pentan-3-Yl)Oxazole-5-Carboxamide], the concentration for a half-maximal effect (EC50) was found to be 0.13 µM and the Emax came to 177%.
The like results for `C[C@H](NC(=O)c1cnc(-c2cccc(-c3nc(C(=O)N[C@@H](C)C4CC4)n(CCO)n3)c2)o1)C1CC1` [Example 16.1, N-((S)-1-Cyclopropylethyl)-2-(3-(5-(((S)-1-Cyclopropylethyl)Carbamoyl)-1-(2-Hydroxyethyl)-1H-1,2,4-Triazol-3-Yl)Phenyl)Oxazole-5-Carboxamide] were, in that order, 0.46 µM and 102%.
For `C[C@H](NC(=O)c1cnc(-c2cccc(-c3nc(C(=O)N[C@@H](C)C4CC4)n(CCCO)n3)c2)o1)C1CC1` [Example 16.2, N-((S)-1-Cyclopropylethyl)-2-(3-(5-(((S)-1-Cyclopropylethyl)Carbamoyl)-1-(3-Hydroxypropyl)-1H-1,2,4-Triazol-3-Yl)Phenyl)Oxazole-5-Carboxamide], in that order: 0.29 µM and 140%.
